Data from patent US11976334B2, “Inhibitor of ATR kinase for use in a method of treating a hyper-proliferative disease” (Bayer Aktiengesellschaft, priority 2017, dated 2024).

Legend:
[1] = tested on: LNCaP human prostate cancer cells; assay: Proliferation of LNCaP cells (CellTiter-Glow); type: cell-based; conditions: 144 h, R1881 1 nM, day 6, read-out: in vitro (IC50, nM), inhibition of tumor cell proliferation
Protocol: They were plated in RPMI1640 medium without phenol red+10% charcoal-stripped FCS at 600 cells/well in a 384-well white plate. […] Cell number was determined by CellTiter-Glow (Promega) at day 0 and day 6. Luminescence was determined in Victor X3. The inhibition of cell growth was calculated by normalization with respect to the fluorescence reading (cell number) measured at the end of the experiment for cells treated with R1881 alone compared to the fluorescence reading (cell number) measured at the start of the experiment for DMSO-treated cells.

[2] = tested on: 22RV1 human prostate cancer cells; assay: Proliferation of 22Rv1 cells (crystal violet); type: cell-based; conditions: 96 h, 22Rv1, Prostate, 4 days, read-out: in vitro (IC50, nM), inhibition of tumor cell proliferation
Protocol: (§1) 22RV1 human prostate cancer cells were obtained from the American Type Culture Collection (ATCC CRL-2505). They were plated in RPMI1640 medium supplemented with 10% FCS at 5000 cells/well in a 96-well microtiter plate. After 24 h, the cells from one microtiter plate were stained with crystal violet (==>0 plate), whereas the cells in the test plates were exposed continuously for 4 days to test substances. Cell proliferation was determined by staining with crystal violet. The absorbance was determined photometrically at 595 nm using a Tecan Sunrise instrument.

[3] = tested on: VCaP human prostate cancer cells; assay: Proliferation of VCaP cells (Alamar Blue); type: cell-based; conditions: 168 h, day 7, read-out: in vitro (IC50, nM), inhibition of tumor cell proliferation
Protocol: VCaP human prostate cancer cells were obtained from the VTT Technical Research Center (Finland). They were plated in DMEM medium (DMEM=Dulbecco's Modified Eagle Medium) with stable glutamine+10% FCS at 16000 cells/well in a 96-well microtiter plate. […] Cell number was determined by Alamar Blue staining (2 h) at day 0 and day 7. Fluorescence was determined in a Victor X3 device (excitation 530 nm; emission 590 nm). The inhibition of cell growth was calculated by normalization with respect to the fluorescence reading (cell number) measured at the end of the experiment for cells treated with R1881 alone compared to the fluorescence reading (cell number) measured at the start of the experiment for DMSO-treated cells.

[4] = tested on: LAPC-4 human prostate cancer cells; assay: Proliferation of LAPC-4 cells (Alamar Blue); type: cell-based; conditions: 168 h, LapC4, Prostate, R1881 1 nM, day 7, read-out: in vitro (IC50, nM), inhibition of tumor cell proliferation
Protocol: LAPC-4 human prostate cancer cells were obtained from the VTT Technical Resarch Center (Finland). They were plated in RPMI 1640 (RPMI=Roswell Park Memorial Institute) medium without phenol red+10% charcoal-stripped FCS (FCS=Fetal Calf Serum)+2 mM L-Glutamine at 4000 cells/well in a 96-well microtiter plate. […] Cell number was determined by Alamar Blue staining (2 h) at day 7. Fluorescence was determined in a Victor X3 device (excitation 530 nm; emission 590 nm). The inhibition of cell growth was calculated by normalization with respect to the fluorescence reading (cell number) measured at the end of the experiment for cells treated with R1881 alone compared to the fluorescence reading (cell number) measured at the end of the experiment for DMSO-treated cells.

[5] = tested on: PC-3 human prostate cancer cells; assay: Proliferation of PC-3 cells (crystal violet); type: cell-based; conditions: PC-3, 96 h, PC3, Prostate, 4 days, read-out: in vitro (IC50, nM), inhibition of tumor cell proliferation
Protocol: as §1, with “PC-3” for “22RV1”, “DSMZ-German” for “American Type Culture”, “of Microorganisms and Cell Cultures (Germany) (DSMZ ACC-465).” for “(ATCC CRL-2505).”, “DMEM/Ham's F12” for “RPMI1640”, “medium” for “medium supplemented”, “stable Glutamine+10%” for “10%”

C4-2B = assay: Tumor cell proliferation, C4-2B (crystal violet); type: cell-based; conditions: Homo sapiens, 96 h, Prostate, 4 days, read-out: in vitro (IC50, nM), inhibition of tumor cell proliferation
Source text: (§2) All measurements were done in quadruplicates.

HCC70 = assay: Tumor cell proliferation, HCC70 (crystal violet); type: cell-based; conditions: Homo sapiens, 96 h; HCC70, Breast; 4 days; read-out: in vitro (IC50, nM), inhibition of tumor cell proliferation
Source text: as §2

HT29 = assay: Tumor cell proliferation, HT29 (crystal violet); type: cell-based; conditions: Homo sapiens, HT-29, 96 h; HT29, Colorectal; 4 days; read-out: in vitro (IC50, nM), inhibition of tumor cell proliferation
Source text: as §2

U-87MG = assay: Tumor cell proliferation, U-87MG (crystal violet); type: cell-based; conditions: Homo sapiens, 96 h, Glioblastoma, 4 days, read-out: in vitro (IC50, nM), inhibition of tumor cell proliferation
Source text: as §2

M059J = assay: Tumor cell proliferation, M059J (crystal violet); type: cell-based; conditions: Homo sapiens, 96 h, Glioblastoma, 4 days, read-out: in vitro (IC50, nM), inhibition of tumor cell proliferation
Source text: as §2

NCI-H2030 = assay: Tumor cell proliferation, NCI-H2030 (crystal violet); type: cell-based; conditions: Homo sapiens, 96 h; NCI-H2030, Lung; 4 days; read-out: in vitro (IC50, nM), inhibition of tumor cell proliferation
Source text: as §2

NCI-H23 = assay: Tumor cell proliferation, NCI-H23 (crystal violet); type: cell-based; conditions: Homo sapiens, 96 h; NCI-H23, Lung; 4 days; read-out: in vitro (IC50, nM), inhibition of tumor cell proliferation
Source text: as §2

A549 = assay: Tumor cell proliferation, A549 (crystal violet); type: cell-based; conditions: Homo sapiens, 96 h; A549, Lung; 4 days; read-out: in vitro (IC50, nM), inhibition of tumor cell proliferation
Source text: as §2

SU-DHL-8 = assay: Tumor cell proliferation, SU-DHL-8 (Cell Titer Glo); type: cell-based; conditions: Homo sapiens, 96 h; SU-DHL-8, Lymphoma, B cell; 4 days; read-out: in vitro (IC50, nM), inhibition of tumor cell proliferation
Protocol: (§3) Non-adherent growing GRANTA-519, Jeko-1, JVM-2, NCI-H929, Rec-1 and SU-DHL-8 cells were seeded in 150 μl of growth medium at 4000 cells/well (NCI-H929, 5000 cells/well) in 96-well microtiter plates and incubated for 24 h at 37° C. […] All measurements were done in quadruplicates.

TMD-8 = assay: Tumor cell proliferation, TMD-8; type: cell-based; conditions: Homo sapiens, TMD8, 96 h; TMD-8, Lymphoma, B cell; 4 days; read-out: in vitro (IC50, nM), inhibition of tumor cell proliferation
Source text: as §2

REC-1 = assay: Tumor cell proliferation, REC-1 (Cell Titer Glo); type: cell-based; conditions: Homo sapiens, Rec1, 96 h; REC-1, Lymphoma, mantle cell; 4 days; read-out: in vitro (IC50, nM), inhibition of tumor cell proliferation
Protocol: as §3

Jeko-1 = assay: Tumor cell proliferation, Jeko-1 (Cell Titer Glo); type: cell-based; conditions: Homo sapiens, 96 h; Jeko-1, Lymphoma, mantle cell; 4 days; read-out: in vitro (IC50, nM), inhibition of tumor cell proliferation
Protocol: as §3

GRANTA-519 = assay: Tumor cell proliferation, GRANTA-519 (Cell Titer Glo); type: cell-based; conditions: Homo sapiens, 96 h; GRANTA-519, Lymphoma, mantle cell; 4 days; read-out: in vitro (IC50, nM), inhibition of tumor cell proliferation
Protocol: as §3

JVM-2 = assay: Tumor cell proliferation, JVM-2 (Cell Titer Glo); type: cell-based; conditions: Homo sapiens, 96 h; JVM-2, Lymphoma, mantle cell; 4 days; read-out: in vitro (IC50, nM), inhibition of tumor cell proliferation
Protocol: as §3

HT-144 = assay: Tumor cell proliferation, HT-144 (crystal violet); type: cell-based; conditions: Homo sapiens, 96 h; HT-144, Melanoma; 4 days; read-out: in vitro (IC50, nM), inhibition of tumor cell proliferation
Source text: as §2

SK-OV-3 = assay: Tumor cell proliferation, SK-OV-3 (crystal violet); type: cell-based; conditions: Homo sapiens, 96 h; SK-OV-3, Ovarian; 4 days; read-out: in vitro (IC50, nM), inhibition of tumor cell proliferation
Source text: as §2

BxPC3 = assay: Tumor cell proliferation, BxPC3 (crystal violet); type: cell-based; conditions: Homo sapiens, BXPC-3, 96 h; BxPC3, Pancreas; 4 days; read-out: in vitro (IC50, nM), inhibition of tumor cell proliferation
Source text: as §2

AsPc-1 = assay: Tumor cell proliferation, AsPc-1 (crystal violet); type: cell-based; conditions: Homo sapiens, ASPC1, 96 h; AsPc-1, Pancreas; 4 days; read-out: in vitro (IC50, nM), inhibition of tumor cell proliferation
Source text: as §2

MIAPaCa2 = assay: Tumor cell proliferation, MIAPaCa2 (crystal violet); type: cell-based; conditions: Homo sapiens, MIA PaCa-2, 96 h; MIAPaCa2, Pancreas; 4 days; read-out: in vitro (IC50, nM), inhibition of tumor cell proliferation
Source text: as §2

DLD-1 parental = assay: Isogenic tumor cell line proliferation, DLD-1 parental; type: cell-based; conditions: Homo sapiens, 168 h, Colorectal, 7 days, CTG, read-out: in vitro (IC50, nM), inhibition of isogenic tumor cell line proliferation
Protocol: (§4) The isogenic DLD-1 cell lines DLD-1 parental, DLD-1 BRCA2 (−/−) and DLD-1 ATM (−/−) (see Table 3: Test systems) were seeded in RPMI 1640 (RPMI=Roswell Park Memorial Institute) medium without phenol red+10% charcoal-stripped FCS (FCS=Fetal Calf Serum)+2 mM L-Glutamine+25 mM Sodium Bicarbonate at 2,500 cells/well in a 96-well microtiter plate. […] All measurements were done in quadruplicates.

DLD-1 BRCA2 (−/−) = assay: Isogenic tumor cell line proliferation, DLD-1 BRCA2 (−/−); type: cell-based; conditions: Homo sapiens, 168 h, BRCA2 deficiency, 7 days, CTG, read-out: in vitro (IC50, nM), inhibition of isogenic tumor cell line proliferation
Protocol: as §4

[6] = tested on: A2780 xenograft (ovarian); conditions: mouse, in vivo, po, 50 mg/kg
Protocol: (§5) For this purpose, mice were implanted subcutaneously with tumor cells. […] The oral application volume was 10 ml/kg. The time interval between two applications per day was 6-7 h. […] The tumor size and the body weight were determined three times weekly. Changes in the body weight were a measure of treatment-related toxicity (>10%=critical, stop of treatment until recovery, >20%=toxic, termination). The tumor area was detected by means of an electronic caliper gauge [length (mm)×width (mm)]. In vivo anti-tumor efficacy is presented as T/C ratio (Treatment/Control) calculated with tumor areas at study end by the formula [(tumor area of treatment group at day x)−(tumor area of treatment group at day before first treatment)]/[(tumor area of control group at day x)−(tumor area of control group at day before first treatment)]. […] Statistical analysis was assessed using SigmaStat software. A one-way analysis of variance was performed and differences to the control were compared by a pair-wise comparison procedure (Dunn's method).

[7] = tested on: LOVO xenograft (colorectal cancer); conditions: mouse, in vivo, po, 50 mg/kg
Protocol: as §5

PC3 xenograft (prostate) = conditions: mouse, in vivo, po, 50 mg/kg
Protocol: as §5

[8] = tested on: REC-1 xenograft (mantle cell lymphoma); conditions: mouse, in vivo, po, 50 mg/kg
Protocol: as §5

C[C@@H]1COCCN1c1cc(-c2ccnn2C)c2ccnc(-c3ccn[nH]3)c2n1 [Compound A, 2-[(3R)-3-methylmorpholin-4-yl]-4-(1-methyl-1H-pyrazol-5-yl)-8-(1H-pyrazol-5-yl)-1,7-naphthyridine]
IC50 [1]: 18 nM
IC50 [2]: 36 nM
IC50 [3]: 51 nM
IC50 [4]: 55 nM
IC50 [5]: 490 nM
IC50 (C4-2B): 50 nM
IC50 (HCC70): 27 nM
IC50 (HT29): 160 nM
IC50 (U-87MG): 64 nM
IC50 (M059J): 80 nM
IC50 (NCI-H2030): 160 nM
IC50 (NCI-H23): 18 nM
IC50 (A549): 29 nM
IC50 (SU-DHL-8): 9 nM
IC50 (TMD-8): 179 nM
IC50 (REC-1): 10 nM
IC50 (Jeko-1): 18 nM
IC50 (GRANTA-519): 30 nM
IC50 (JVM-2): 32 nM
IC50 (HT-144): 40 nM
IC50 (SK-OV-3): 33 nM
IC50 (BxPC3): 44 nM
IC50 (AsPc-1): 49 nM
IC50 (MIAPaCa2): 380 nM
IC50 (DLD-1 parental): 50 nM
IC50 (DLD-1 BRCA2 (−/−)): 27 nM
Max. weight loss (%) [6]: −6%
Max. weight loss (%) [7]: −8%
Max. weight loss (%) (PC3 xenograft (prostate)): −7%
Max. weight loss (%) [8]: −10%
